From the supplement of paper PMC7661543
± gives the standard deviation of the averaged measurements.

Legend:
Assay in all cases: relative cell number vs DMSO control (72 h) (% of DMSO); higher = less growth inhibition (more cells)
Conditions in all cases: sgRNA knockout: sgNT
BT-20 = tested on: BT-20
Protocol: (§1)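 QMAP-Seq: a pool of 5 breast cancer cell lines (ZR-75-1, SKBR3, HCC-38, MDA-MB-231, BT-20), each carrying 12 doxycycline-inducible Cas9 sgRNA perturbations (11 knockouts plus non-targeting sgNT), was treated with compounds for 72 h at four 10-fold doses (10 nM-10 uM or 1 nM-1 uM range). Barcodes were amplified and sequenced, and cell number was interpolated from 293T spike-in standard curves. The result is expressed as % of the median of DMSO wells. Two biological replicates.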

MDA-MB-231 = tested on: MDA-MB-231
Protocol: as §1

HCC-38 = tested on: HCC-38
Protocol: as §1

ZR-75-1 = tested on: ZR-75-1
Protocol: as §1

SKBR3 = tested on: SKBR3
Protocol: as §1

| Structure (SMILES) | relative cell number (BT-20; 10 nM) | relative cell number (BT-20; 100 nM) | relative cell number (BT-20; 1000 nM) | relative cell number (BT-20; 10000 nM) | relative cell number (MDA-MB-231; 10 nM) | relative cell number (MDA-MB-231; 100 nM) | relative cell number (MDA-MB-231; 1000 nM) | relative cell number (MDA-MB-231; 10000 nM) | relative cell number (HCC-38; 10 nM) | relative cell number (HCC-38; 100 nM) | relative cell number (HCC-38; 1000 nM) | relative cell number (HCC-38; 10000 nM) | relative cell number (ZR-75-1; 10 nM) | relative cell number (ZR-75-1; 100 nM) | relative cell number (ZR-75-1; 1000 nM) | relative cell number (ZR-75-1; 10000 nM) | relative cell number (SKBR3; 10 nM) | relative cell number (SKBR3; 100 nM) | relative cell number (SKBR3; 1000 nM) | relative cell number (SKBR3; 10000 nM) | relative cell number (BT-20; 1 nM) | relative cell number (MDA-MB-231; 1 nM) | relative cell number (HCC-38; 1 nM) | relative cell number (ZR-75-1; 1 nM) | relative cell number (SKBR3; 1 nM) |
| --- | --- | --- | --- | --- | --- | --- | --- | --- | --- | --- | --- | --- | --- | --- | --- | --- | --- | --- | --- | --- | --- | --- | --- | --- | --- |
| CC[C@H](C)C(=O)O[C@H]1C[C@@H](C)C=C2C=C[C@H](C)[C@H](CC[C@@H]3C[C@@H](O)CC(=O)O3)[C@H]21 [Lovastatin] | 114 ± 20 | 78.7 ± 11 | 89.9 ± 35 | 78.8 ± 12 | 112 ± 28 | 52.2 ± 31 | 83 ± 29 | 15.7 ± 6.2 | 96.5 ± 11 | 85.9 ± 6.2 | 102 ± 22 | 73.4 ± 13 | 138 ± 33 | 67.2 ± 6.6 | 100.5 ± 0.94 | 88.2 ± 6.5 | 103 ± 22 | 81.1 ± 12 | 93.1 ± 11 | 78.4 ± 22 |  |  |  |  |  |
| CC(C)C[C@@H](C=O)NC(=O)[C@H](CC(C)C)NC(=O)[C@H](CC(C)C)NC(=O)OCc1ccccc1 [MG132] | 102 ± 21 | 113 ± 32 | 35.4 ± 8.1 | 12 ± 0.91 | 121 ± 1.8 | 77.3 ± 41 | 7.19 ± 1.8 | 7.81 ± 2.5 | 92.8 ± 13 | 95.7 ± 16 | 5.97 ± 0.84 | 8.104 ± 0.025 | 80.8 ± 16 | 97.1 ± 11 | 24.7 ± 3.3 | 6.78 ± 1.8 | 111 ± 7.2 | 99.3 ± 22 | 14 ± 1.8 | 9.81 ± 0.2 |  |  |  |  |  |
| O=C(O)CC[C@H]1CC[C@@](c2cc(F)ccc2F)(S(=O)(=O)c2ccc(Cl)cc2)CC1 [MK0752] | 137 ± 39 | 112 ± 41 | 145 ± 3.2 | 134 ± 1.4 | 170 ± 61 | 93.4 ± 20 | 124 ± 7.5 | 94.4 ± 51 | 135 ± 24 | 107 ± 2.6 | 112 ± 14 | 115 ± 43 | 120 ± 36 | 88.2 ± 30 | 107 ± 22 | 127 ± 28 | 172 ± 42 | 114 ± 19 | 107 ± 24 | 111 ± 27 |  |  |  |  |  |
| C=CCn1c(=O)c2cnc(Nc3ccc(N4CCN(C)CC4)cc3)nc2n1-c1cccc(C(C)(C)O)n1 [MK1775] | 95.2 ± 12 | 84.17 ± 0.44 | 42.9 ± 2.7 | 31.7 ± 1.8 | 81.5 ± 35 | 74 ± 8 | 20.3 ± 8 | 13.8 ± 6.6 | 97.2 ± 20 | 76.6 ± 6.7 | 35.3 ± 2.2 | 29.548 ± 0.018 | 138 ± 30 | 77.7 ± 43 | 51.7 ± 24 | 15.6 ± 6 | 112 ± 1.2 | 108 ± 18 | 29.8 ± 14 | 14.7 ± 1.8 |  |  |  |  |  |
| CC(C)C[C@H](NC(=O)CNC(=O)c1cc(Cl)ccc1Cl)B(O)O [MLN2238] | 85.1 ± 6.1 | 91 ± 27 | 40.2 ± 3.5 | 15 ± 6.4 | 94.1 ± 17 | 65.3 ± 5 | 8.44 ± 0.14 | 4.72 ± 0.16 | 91.7 ± 16 | 50.2 ± 2.5 | 5.9 ± 0.86 | 4.82 ± 1.7 | 93.7 ± 33 | 81.4 ± 28 | 17.8 ± 7.5 | 10.9 ± 8 | 87.5 ± 27 | 54.1 ± 9.5 | 9.25 ± 0.68 | 2.47 ± 0.24 |  |  |  |  |  |
| Cc1ccc(NC(=O)c2ccc(CN3CCN(C)CC3)cc2)cc1Nc1nc(-c2cccnc2)cs1 [Masitinib] | 92.1 ± 2.6 | 80.9 ± 25 | 95.2 ± 38 | 70.8 ± 23 | 91 ± 41 | 74.9 ± 12 | 64.2 ± 30 | 50.7 ± 4.3 | 106 ± 6.1 | 78.71 ± 0.36 | 76.6 ± 17 | 97.6 ± 2.4 | 70.6 ± 28 | 76.2 ± 9.5 | 94.7 ± 34 | 34.2 ± 1.2 | 78.7 ± 58 | 99.4 ± 23 | 67.4 ± 6.4 | 66.6 ± 0.77 |  |  |  |  |  |
| COc1cc(-n2c(=S)[nH]c3ccccc3c2=O)c(Cl)cc1Cl [Mdivi1] | 76.5 ± 8.6 | 98.8 ± 5.6 | 83.6 ± 2.9 | 84 ± 3.7 | 93.3 ± 18 | 84.9 ± 27 | 94.7 ± 11 | 50.1 ± 5.6 | 95.3 ± 11 | 93.4 ± 13 | 100 ± 10 | 83.1 ± 20 | 135 ± 44 | 77.9 ± 7.1 | 80.6 ± 2.8 | 41.5 ± 26 | 76 ± 18 | 104 ± 6.3 | 60 ± 1.5 | 44.2 ± 5.5 |  |  |  |  |  |
| COC(=O)Nc1nc2cc(C(=O)c3ccccc3)ccc2[nH]1 [Mebendazole] | 87.1 ± 7.3 | 78.9 ± 21 | 25 ± 7.1 | 20.6 ± 6.8 | 110 ± 10 | 79.4 ± 38 | 31.4 ± 12 | 26.5 ± 1.1 | 97.2 ± 18 | 83.2 ± 4.6 | 18.2 ± 7.5 | 19.9 ± 0.56 | 71.7 ± 21 | 64.7 ± 17 | 36.8 ± 8.2 | 14 ± 8.6 | 96.3 ± 10 | 59.8 ± 7.3 | 10.6 ± 9.4 | 7.21 ± 5.9 |  |  |  |  |  |
| CN(Cc1cnc2nc(N)nc(N)c2n1)c1ccc(C(=O)N[C@@H](CCC(=O)O)C(=O)O)cc1 [Methotrexate] | 98.43 ± 0.61 | 80.6 ± 3.4 | 51.2 ± 16 | 37.8 ± 12 | 97.5 ± 4.3 | 101 ± 17 | 91.2 ± 9.4 | 33.9 ± 8.7 | 105 ± 3.4 | 56 ± 1.1 | 41.2 ± 0.74 | 35.2 ± 0.52 | 89.6 ± 11 | 38.6 ± 12 | 40.6 ± 11 | 36.9 ± 8 | 116 ± 42 | 41 ± 1.5 | 22.1 ± 12 | 25.5 ± 6.4 |  |  |  |  |  |
| O=C1c2c(O)ccc(O)c2C(=O)c2c(NCCNCCO)ccc(NCCNCCO)c21 [Mitoxantrone] | 55 ± 13 | 39.2 ± 9.2 | 19.5 ± 5 | 5.45 ± 2 | 20.8 ± 7.3 | 17.3 ± 0.44 | 4.896 ± 0.008 | 6.65 ± 4.1 | 33.9 ± 2.3 | 30.46 ± 0.2 | 7.76 ± 0.68 | 7.21 ± 2.4 | 37.2 ± 4 | 22.3 ± 12 | 13.4 ± 1.2 | 7.6 ± 0.68 | 37.3 ± 21 | 22.3 ± 5.1 | 4.5 ± 0.26 | 4.94 ± 3.2 |  |  |  |  |  |
| CCNC(=O)c1noc(-c2cc(C(C)C)c(O)cc2O)c1-c1ccc(CN2CCOCC2)cc1 [NVPAUY922] | 81.1 ± 1.5 | 48 ± 3.7 | 37.9 ± 5.3 |  | 71.4 ± 5.7 | 16 ± 4.2 | 9.36 ± 1.3 |  | 67.6 ± 2.1 | 31.7 ± 5.1 | 30 ± 6 |  | 89.8 ± 44 | 27.1 ± 1.1 | 25.7 ± 6.9 |  | 78.6 ± 19 | 30 ± 8.8 | 18.5 ± 5.7 |  | 96.7 ± 24 | 111 ± 40 | 112 ± 16 | 107 ± 6.7 | 116 ± 31 |
| CC1(C)CCC(c2ccc(Cl)cc2)=C(CN2CCN(c3ccc(C(=O)NS(=O)(=O)c4ccc(N[C@H](CCN5CCOCC5)CSc5ccccc5)c(S(=O)(=O)C(F)(F)F)c4)cc3)CC2)C1 [Navitoclax] | 85.4 ± 11 | 90.6 ± 3.6 | 94.8 ± 3.5 | 78 ± 12 | 93.9 ± 27 | 108 ± 6.7 | 93.9 ± 13 | 52.5 ± 7.4 | 96.9 ± 14 | 102 ± 12 | 76.6 ± 12 | 47.9 ± 1.3 | 86.5 ± 10 | 95.5 ± 39 | 105 ± 11 | 81.5 ± 24 | 74.6 ± 24 | 117 ± 33 | 50 ± 18 | 75.1 ± 14 |  |  |  |  |  |
